Results from US20260284011A1, “COMPOUNDS FOR RESTORING SUSCEPTIBILITY TO BETA-LACTAM ANTIBIOTICS” (UNIVERSITY OF NOTRE DAME DU LAC, priority 2023, published 2026).

Columns and labels:
XTT cytotoxicity assay = format: cell-based; conditions: human, hepg2 cells; HepG2; at 64 mg·L^−1; read-out: Cell viability
Experimental: (§1) We evaluated additionally the in vitro cytotoxicity of compound 4 using the XTT assay with HepG2 (liver) cells. Cell viability was 100% at 64 mg·L^−1.
(§2) XTT assay. Compound 4 was evaluated in triplicate in the XTT assay (XTT cell proliferation assay, Canvax, Spain) with HepG2 cells, as described previously (Eur. J. Med. Chem. 253, 115329 (2023)). GraphPad Prism 5 (San Diego, CA) was used to calculate IC50 values.

HepG2 (liver) cells = assay: XTT cytotoxicity assay; format: cell-based; conditions: HepG2 cells
Experimental: as §1, §2

BlaR = BlaR (Staphylococcus aureus, UniProt P18357); assay: Live-cell fluorescent assay for BlaR inhibition (Venus reporter); format: cell-based, S. aureus NRS144pCN52RI-Venus; conditions: compound at 100 mg/L^−1; CBAP 10 mg·L^−1; fluorescence after 2 h
Description: Live-Cell Fluorescent Assay in Discovery and Mechanism of Action. We conceived of fluorescent constructs in the bla operon, for the purpose of screening (FIG. 2a). We removed the gene for the β-lactamase (blaZ) and put in its place individually the genes for the Green Fluorescent Protein (GFP), Venus (a yellow-fluorescent protein) or mCherry (a red-fluorescent protein) in the template plasmid pCN52. The three plasmids were named pCN52RI, pCN52RI-Venus and pCN52RI-mCherry, respectively. The genes for the fluorescent proteins were transcribed under the promoter of the blaZ gene and were regulated by the proteins BlaR and BlaI, as is the case for the wild-type bla operon.
We transformed separately S. aureus NRS144—a laboratory strain that accepts a foreign gene and harbors neither the bla nor the mec operons—with each of these plasmids. […] When induced, the fluorescent protein is produced and is detected (akin to expression of the resistance genes blaZ or mecA in typical MSSA and MRSA). […] The transformed strains were grown in tryptic soy broth medium for overnight culture and strain maintenance and incubated in cation-adjusted Mueller-Hinton broth medium for inhibitor screening in a 96-well microplate format. The culture without CBAP addition was the negative control. In order to select a desirable reporter construct, we compared the intensity of the fluorescence produced from each construct at the wavelengths given in FIG. 2a using the Cytation-5 multi-mode microplate reader. Among the three constructs, pCN52RI-Venus produced the best fluorescence intensity and pCN52RI-mCherry was the second best (FIG. 4).
(§3) The collection of the 100 compounds from the in-silico search was screened against S. aureus NRS144pCN52RI-Venus. The screening strategy was as follows. Bacteria grown to OD600 of 0.25 were exposed concurrently to CBAP (10 mg·L^−1) and the test compound (100 mg·L^−1). Fluorescence was recorded after two hours of incubation. OD600 values were also recorded to identify compounds with inherent antibacterial activity. Compound 1 (Chart 1) emerged—82% diminished fluorescence as an indication of the extent of BlaR inhibition—as a suitable template for structure elaboration. This effort led to the synthesis of several dozen benzimidazole and imidazole compounds. The progression of the iterative design is depicted in Chart 1 for four compounds, culminating in 4. […] The X-ray structures for the complexes of compounds 2 (non-covalent) and 4 (covalent) with the BlaR sensor domain are shown respectively in FIG. 2b (2.0 Å resolution) and FIG. 2c (1.97 Å resolution). Compound 4 makes a covalent bond with the catalytic Ser389 and creates a network of hydrogen bonds with the BlaR active site (FIG. 2c).
(§4) Fluorescent assay for screening of BlaR potential inhibitors. A 3-mL portion of lysogeny broth (LB) medium was inoculated with NRS144pCN52RI Venus from frozen stocks and grown overnight at 37° C. The overnight culture was then diluted 1:150 fold with fresh LB containing […] of erythromycin and incubated at 37° C. to an OD600 of 0.3, at which point fluorescence was induced by the addition of CBAP to a final concentration of 10 μg·mL^−1. The culture was aliquoted (99 L) into 96-well plate and 1 L of inhibitor solution (1 mg·mL^−1 in DMSO) was added to each well. Negative control (DMSO without CBAP) and positive control (CBAP without inhibitor) were included. The plate was incubated at 30° C. for 2 h with intermittent shaking. Fluorescence and OD600 measurements were taken by a Cytation-5 multimode microplate reader. Percent inhibition of BlaR and bacterial growth were calculated using absorbance unit (AU) and OD600 values of each sample entered into this formula: […]

strain NRS21 = assay: Checkerboard assay; format: cell-based, Staphylococcus aureus; conditions: 24-h incubation
Experimental: (§5) Synergy with β-Lactams and Time-Kill Assays. […] In this assay, the antibiotics are compared individually and in combination. The fractional inhibitory concentration (FIC) index is calculated. Synergy is defined as an FIC value ≤0.5, indifference as FIC >0.5 to ≤4, and antagonism as FIC >4.
(§6) Checkerboard assay. […] The final inoculum in each well was 5×10^5 CFU·mL^−1, and the result was read after 24-h incubation at 37° C. The fractional inhibitory concentration (FIC) index was calculated for each combination. An FIC index of ≤0.5 is considered synergistic. The experiment was done in triplicates.

additional MRSA strains = assay: Checkerboard assay; format: cell-based, Staphylococcus aureus
Experimental: as §5, §6

[1] = test system: active-site serine penicillin-binding proteins; assay: Inhibition of penicillin-binding proteins
[2] = test system: S. aureus NRS144pCN52RI-Venus; assay: Bacterial growth inhibition (OD600) in the fluorescent screening assay; format: cell-based, Staphylococcus aureus; conditions: compound at 100 mg/L^−1; OD600 after 2 h
Experimental: as §3, §4

HI049 = assay: Checkerboard assay; format: cell-based, Staphylococcus aureus
Experimental: as §5, §6

HFH29568 [3] = assay: Checkerboard assay; format: cell-based, Staphylococcus aureus
Experimental: as §5, §6

HFH29568 [4] = assay: Time-kill assay; format: cell-based, Staphylococcus aureus
Experimental: Time-kill assay. MRSA strains (NRS21, NRS70, NRS382, NRS404, HFH 29568, and HFH 30495) were grown overnight on tryptic soy agar plate. Bacteria were diluted in Muller-Hinton broth containing 2% NaCl to […] CFU·mL^−1. […] For MEM and CPT, cation-adjusted Muller-Hinton broth without 2% NaCl was used. Aliquots were taken at 0, 3, 6, 9, 12, and 24 h and were diluted serially for bacterial counts. The assay was done in triplicate.

Chain of BlaR (P18357 whole entry): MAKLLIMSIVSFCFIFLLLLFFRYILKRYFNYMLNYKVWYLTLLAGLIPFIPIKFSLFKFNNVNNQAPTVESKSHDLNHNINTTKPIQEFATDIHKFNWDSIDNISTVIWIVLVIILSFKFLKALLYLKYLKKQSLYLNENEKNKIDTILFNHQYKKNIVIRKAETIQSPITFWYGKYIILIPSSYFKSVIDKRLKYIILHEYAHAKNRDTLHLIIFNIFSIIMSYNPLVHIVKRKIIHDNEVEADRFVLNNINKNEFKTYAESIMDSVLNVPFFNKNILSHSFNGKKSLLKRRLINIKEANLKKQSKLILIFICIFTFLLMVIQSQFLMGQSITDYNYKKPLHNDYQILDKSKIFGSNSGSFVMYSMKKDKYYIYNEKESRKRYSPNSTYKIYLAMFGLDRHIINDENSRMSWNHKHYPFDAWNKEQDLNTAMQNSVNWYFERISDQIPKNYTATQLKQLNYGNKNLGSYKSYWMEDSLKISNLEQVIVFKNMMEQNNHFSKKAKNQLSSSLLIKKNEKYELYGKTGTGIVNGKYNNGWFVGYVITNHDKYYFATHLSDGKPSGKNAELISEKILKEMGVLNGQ

| SMILES | viability (XTT cytotoxicity assay) [%] | in vitro cytotoxicity (HepG2 (liver) cells) | % Inhibition of BlaR (BlaR) [%] | FIC index, 4 with FOX (strain NRS21) | FIC index, 4 with OXA (strain NRS21) | FIC, 4 with OXA, MEM, FOX, or CPT (additional MRSA strains) | inhibitory properties against penicillin-binding proteins [1] | % Inhibition of bacterial growth [2] [%] | FIC index, 4 with MEM (HI049) | FIC index, 4 with MEM (HFH29568 [3]) | log10 decrease in bacterial growth (HFH29568 [4]; MEM by itself, at 6 h) [log10] | activity of MEM by itself (HFH29568 [4]; by 24 h) |
| --- | --- | --- | --- | --- | --- | --- | --- | --- | --- | --- | --- | --- |
| N#Cc1ccc2nc(SCB(O)O)n(Cc3ccc(C(F)(F)F)cc3C(F)(F)F)c2c1 [Compound 4, (((1-(2,4-bis(trifluoro-methyl)benzyl)-6-cyano-1H-benzo[d]imidazol-2-yl)thio)methyl)boronic acid] | 100 | not toxic to HepG2 cells | 98 | 0.25 | 0.19 | < 0.25 | modest inhibitory properties | 25 | – | – | – | – |
| C[C@@H](O)[C@H]1C(=O)N2C(C(=O)O)=C(S[C@@H]3CN[C@H](C(=O)N(C)C)C3)[C@H](C)[C@H]12 [MEM, meropenem] | – | – | – | – | – | – | – | – | 0.19 | 0.09 | 2 | no activity |
